Assay results as given in patent publication US8362031B2, “Lonidamine analogues and treatment of polycystic kidney disease” (University of Kansas, priority 2004, dated 2013).

How the values were obtained:
[1] = test system: ADPKD cyst-lining epithelial cells; assay: MTT assay, proliferation of ADPKD cyst-lining epithelial cells; assay type: cell-based, human
Experimental: Gamendazole (GMZ) was studied to determine the effect on cAMP and EGF treated ADPKD cyst-lining epithelial cells. The cells were treated with 100 uM cAMP or 25 ng/ml EGF to stimulate cell proliferation. Increasing concentrations of gamendazole were added to the medium of the cells. After 72 hours of treatment, MTT assays were performed.
For the MTT assay shown in FIG. 10A, ADPKD cyst-lining epithelial cells were plated at a density of 4×10^3 cells per well in a 96-well cell culture plate (n=6). Cells were serum-starved for 24 hours and treated either with 100 μM cAMP or 25 ng/ml EGF to stimulate cell proliferation. For the MTT assay shown in FIG. 10B, ADPKD cells were plated at a density of 2×10^3 cells per well in medium containing 1% FBS. After 24 hours, medium was changed to include 5% FBS. Increasing concentrations of GMZ were added to the medium for the cells of both FIGS. 10A and 10B to determine the effect of GMZ on cell proliferation. After 72 hours of treatment, MTT assays were performed by adding dye solution to the cells and stopping the reaction four hours later. Optical densities were measured using a spectrophotometer. In each group, results were expressed as a percentage of the control group (not treated with GMZ).

[2] = test system: PCNA (proliferating cell nuclear antigen); assay: Immunostaining of organ culture kidney sections; assay type: cell-based, mouse; conditions: not shown
Description: Since GMZ affects Hsp90 client proteins involved in cell proliferation, it was hypothesized that GMZ could also be inhibiting cell proliferation in the metanephric organ cultures. To test this idea, organ culture sections were immunostained with an antibody to PCNA (proliferating cell nuclear antigen), a marker of cell proliferation.

[3] = test system: pcy mouse; assay: In vivo treatment of the pcy mouse; conditions: 1 mg/kg IP, three times weekly from 5-20 weeks of age, after 12 weeks of treatment
Description: The Pkd1 gene is orthologous to the gene involved in ˜85% of human ADPKD cases. […] Biol Reprod. 78(6):1139-52 (2008). If so, it could be reducing the levels of the Hsp90 client proteins, CFTR and NKCC1, both important for cyst-filling chloride secretion. Evidence is shown here that NKCC1 protein levels were reduced by GMZ treatment of metanephric kidneys in organ culture. Evidence was also shown for decreased PCNA levels, which is consistent with a general decrease in cell proliferation in these kidneys in organ culture, due probably to Hsp90 inhibition. The efficacy of GMZ on inhibition of cyst growth in vivo is currently being tested in the pcy mouse, a mouse model of nephronophthisis-3 (NPHP3) which has a slowly progressive renal cystic disease. […] Accordingly, gamendazole inhibits cell proliferation and cAMP-stimulated cyst-like expansion (in metanephric organ cultures). The mechanisms may involve: a direct and rapid inhibition of forskolin-stimulated CFTR channel activity; inhibition of Hsp90 chaperone function leading to long-term reduction of NKCC1 protein levels; or reduction of PKD proliferation pathway components. Thus, GMZ appears to be a potent inhibitor of these two important processes involved in PKD pathogenesis.

Q: `O=C(O)CCc1nn(Cc2ccc(Cl)cc2Cl)c2cc(C(F)(F)F)ccc12` [GMZ, 3-[1-(2,4-dichlorobenzyl)-6-trifluoromethyl-1H-indazol-3-yl]-propionic acid] was tested. Which “EGF-induced proliferation of ADPKD cells (MTT)” value ([1]; 25 ng/ml EGF, 1 uM to 25 uM GMZ for 72 h, dose-dependent) did it give?
A: significantly inhibited

Q: What about the “cell proliferation at 10 μM” value ([1]; 10 μM) of the same compound?
A: no effect on cell proliferation

Q: What about the “cAMP-induced proliferation of ADPKD cells (MTT)” value ([1]; 100 μM cAMP, 1 uM to 25 uM GMZ for 72 h, dose-dependent) of the same compound?
A: significantly inhibited

Q: What about the “Cell proliferation of ADPKD cells with increasing concentration (MTT, FIGS. 10A and 10B)” value ([1]; cAMP, EGF or 5% FBS medium, 72 hours) of the same compound?
A: more effectively inhibited cell proliferation as the concentration was increased

Q: What about the PCNA staining [2] of the same compound?
A: overall less staining, and fewer tubule cells staining for PCNA

Q: And the “Tolerability in the pcy mouse” value [3]?
A: the treated mice appear to be tolerating GMZ
